PMC8188608 (Chemical Science, 2021)
≈ marks a conversion by molar mass, not a printed value.

Legend:
E. coli TolC = test: microbe, parasite or virus in culture; format: cell-based; settings: for inhibition at 50 µM / MIC: Escherichia coli; for inhibition at 50 µM: read-out: inhib. (%) growth inhibition of E. coli TolC; for MIC: read-out: MIC E. coli TolC
drDXPS [1] = biological target: T1, drDXPS (Deinococcus radiodurans, UniProt Q9RUB5); test: biochemical; settings: for inhibition at 120 µM: read-out: inhib. (%) drDXPS, at 120 μM
T1 sequence (Q9RUB5 whole entry): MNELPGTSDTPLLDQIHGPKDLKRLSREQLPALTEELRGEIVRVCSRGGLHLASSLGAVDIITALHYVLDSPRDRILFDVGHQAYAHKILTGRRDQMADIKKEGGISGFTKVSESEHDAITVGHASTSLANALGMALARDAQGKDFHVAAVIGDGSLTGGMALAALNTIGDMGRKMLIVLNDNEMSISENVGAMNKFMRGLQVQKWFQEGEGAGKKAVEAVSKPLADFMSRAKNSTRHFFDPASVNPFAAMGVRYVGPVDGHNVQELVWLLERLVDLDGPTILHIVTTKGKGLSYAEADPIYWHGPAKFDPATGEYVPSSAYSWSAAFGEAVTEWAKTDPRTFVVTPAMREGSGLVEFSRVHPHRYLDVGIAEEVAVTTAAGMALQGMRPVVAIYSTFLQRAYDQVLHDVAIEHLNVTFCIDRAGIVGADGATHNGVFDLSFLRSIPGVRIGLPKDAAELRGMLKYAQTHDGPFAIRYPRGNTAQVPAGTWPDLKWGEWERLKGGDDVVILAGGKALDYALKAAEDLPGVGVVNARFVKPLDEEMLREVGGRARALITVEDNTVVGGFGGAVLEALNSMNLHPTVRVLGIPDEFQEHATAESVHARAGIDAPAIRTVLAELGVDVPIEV

drDXPS [2] = biological target: T1, drDXPS; test: biochemical; settings: for IC50: IC50 drDXPS
mtDXPS = mtDXPS (Mycobacterium tuberculosis, UniProt P9WNS3); test: biochemical; settings: for inhibition at 200 µM / inhibition at 120 µM: read-out: inhib. (%) mtDXPS; for inhib. (%) mtDXPS: at 120 μM (Table 3: concentration only given)
Chain of mtDXPS (P9WNS3 whole entry): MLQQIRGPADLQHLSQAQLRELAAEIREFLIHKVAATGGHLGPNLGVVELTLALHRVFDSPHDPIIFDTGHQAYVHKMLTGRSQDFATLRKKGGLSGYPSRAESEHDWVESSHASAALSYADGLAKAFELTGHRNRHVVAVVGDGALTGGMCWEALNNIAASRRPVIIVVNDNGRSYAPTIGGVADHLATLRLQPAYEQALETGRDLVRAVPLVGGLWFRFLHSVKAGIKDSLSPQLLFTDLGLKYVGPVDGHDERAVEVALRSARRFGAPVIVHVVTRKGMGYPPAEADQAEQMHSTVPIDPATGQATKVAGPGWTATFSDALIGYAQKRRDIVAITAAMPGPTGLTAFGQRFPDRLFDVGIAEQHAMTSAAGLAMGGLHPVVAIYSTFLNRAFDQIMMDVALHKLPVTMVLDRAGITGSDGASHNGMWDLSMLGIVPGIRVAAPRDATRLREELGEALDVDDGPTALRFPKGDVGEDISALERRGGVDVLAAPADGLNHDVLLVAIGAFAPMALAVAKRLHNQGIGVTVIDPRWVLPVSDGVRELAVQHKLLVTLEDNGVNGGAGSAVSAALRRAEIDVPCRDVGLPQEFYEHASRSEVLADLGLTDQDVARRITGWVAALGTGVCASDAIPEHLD

M. tuberculosis H37Rv = test: microbe, parasite or virus in culture; format: cell-based, Mycobacterium tuberculosis; settings: for anti-TB activity, head-to-head comparative analysis: 16 μM, 14 compounds tested; for MIC: Mycobacterium tuberculosis, H37RV, read-out: MIC M. tuberculosis
[3] = format: physicochemical; settings: when added at higher concentrations
drDXPS [4] = biological target: T1, drDXPS; format: binding

Compound	inhibition at 120 µM (drDXPS [1])	inhibition at 120 µM (mtDXPS)	inhibition at 50 µM (E. coli TolC)	MIC (E. coli TolC)	also measured
O=C(N/N=C/c1ccc(C(F)(F)F)nc1)c1cc2c(s1)CCCC2 [Compound 1, (E)-N'-((6-(Trifluoromethyl)pyridin-3-yl)methylene)-4,5,6,7-tetrahydrobenzo[b]thiophene-2-carbohydrazide]	–	–	–	–	inhib. (%) growth inhibition of E. coli TolC (E. coli TolC; at 50 μM): no inhib. and n.i.; IC50 (drDXPS [1]; IC50 drDXPS): 51 µM; mode of inhibition (drDXPS [2]): ThDP- and pyruvate-competitive and non-competitive with respect to D/L-GAP; IC50 (drDXPS [2]; at 0.3 μM ThDP): 35 ± 10 µM; IC50 (drDXPS [2]; at 0.1 mM pyruvate): 19 ± 5 µM; IC50 (drDXPS [2]; at 0.4 mM pyruvate): 86 ± 15 µM; IC50 (drDXPS [2]; varying D/L-GAP concentrations): ~50 µM; inhibition of drDXPS (drDXPS [2]; at 5 μM ThDP): 20%; inhibition of drDXPS (drDXPS [2]; at 0.6 mM pyruvate): 32%; IC50 (mtDXPS; IC50 mtDXPS): 78 µM
Nc1ncc(/C=N/NC(=O)c2cc3c(s2)CCCC3)cn1 [Compound 3]	15%	–	–	–	inhib. (%) growth inhibition of E. coli TolC (E. coli TolC; at 50 μM): n.i.
O=C(Cc1c[nH]c2ccccc12)N/N=C/c1ccc(C(F)(F)F)nc1 [Compound 4]	–	–	–	–	inhib. (%) drDXPS (drDXPS [1]; at 120 μM): n.i.; inhibition at 200 µM (mtDXPS): 25%
O=C(COc1ccc(Cl)cc1Cl)N/N=C/c1cc2c(s1)CCCC2 [Compound 6]	–	46%	–	–	inhib. (%) growth inhibition of E. coli TolC (E. coli TolC; at 25 μM): n.i.^#; IC50 (drDXPS [1]; IC50 drDXPS): 101 µM
O=C(N/N=C/c1cc2c(s1)CCCC2)c1cccs1 [Compound 7]	37%	65%	57%	–	anti-TB activity, head-to-head comparative analysis (M. tuberculosis H37Rv): most active; MIC (M. tuberculosis H37Rv): > 64 µM; aggregate formation [3]: did not induce aggregate formation; inhibition at 200 µM (mtDXPS): 65 ± 4%
O=C(COc1ccc(Cl)cc1Cl)N/N=C/c1c[nH]c2ccccc12 [Compound 9]	38%	–	–	19 ± 7 µM (≈ 6.88 µg/mL)	inhibition at 200 µM (mtDXPS): 15%
O=C(COc1ccc(Cl)cc1Cl)N/N=C/c1ccc(Br)cn1 [Compound 10]	14%	–	21%	–	inhibition at 200 µM (mtDXPS): 32%
O=C(CCCOc1ccc(Cl)cc1Cl)N/N=C/c1ncc[nH]1 [Compound 12]	33%	9%	30%	–	–
O=C(CCCOc1ccc(Cl)cc1Cl)N/N=C/c1cccs1 [Compound 16]	4%	–	28%	–	inhib. (%) mtDXPS (mtDXPS): n.i.
CCN(CC)c1ccc(/C=N/NC(=O)c2cccs2)c(O)c1 [Compound 21]	6%	11%	–	70 µM (≈ 22.2 µg/mL)	–
O=C(CCCOc1ccc(Cl)cc1Cl)N/N=C/c1cccc2[nH]ncc12 [Compound 22]	47%	–	–	–	inhib. (%) growth inhibition of E. coli TolC (E. coli TolC; at 50 μM): n.i.; inhib. (%) mtDXPS (mtDXPS): n.i.
O=C(CCCOc1ccc(Cl)cc1Cl)N/N=C/c1ccc(O)cc1F [Compound 23]	40 to 62%	–	–	45 µM (≈ 17.3 µg/mL)	inhib. (%) mtDXPS (mtDXPS): n.i.
COc1cccc(/C=N/NC(=O)CCCOc2ccc(Cl)cc2Cl)c1O [Compound 25]	45%	–	–	60 µM (≈ 23.8 µg/mL)	inhib. (%) mtDXPS (mtDXPS): n.i.
O=C(CCCOc1ccc(Cl)cc1Cl)N/N=C/c1ccc2cc[nH]c2c1 [Compound 26]	58%	5%	–	14 ± 4 µM (≈ 5.46 µg/mL)	–
O=C(N/N=C/c1ccc2cc[nH]c2c1)c1cc2c(s1)CCCC2 [Compound 35]	62%	30%	–	16 ± 5 µM (≈ 5.17 µg/mL)	anti-TB activity, head-to-head comparative analysis (M. tuberculosis H37Rv): most active; MIC (M. tuberculosis H37Rv): 64 µM (≈ 20.7 µg/mL); aggregate formation [3]: did not induce aggregate formation
CC(C)(C)OC(=O)N[C@@H](Cc1ccccc1)C(=O)N/N=C/c1ccc2cc[nH]c2c1 [Compound 37]	40%	3%	60%	–	–
O=C(NCCc1ccc(C(F)(F)F)nc1)c1cc2c(s1)CCCC2 [Compound 38]	25.8%	–	19%	–	–
O=C(CCCOc1ccc(Cl)cc1Cl)NCCc1ccc(O)cc1F [Compound 39]	37%	–	83%	–	fold decrease in binding affinity for drDXPS (drDXPS [4]): ~2 fold
FC(F)(F)c1ccc(-c2nnc(-c3cc4c(s3)CCCC4)o2)cn1 [Compound 40]	–	–	–	–	inhib. (%) growth inhibition of E. coli TolC (E. coli TolC; at 50 μM): no inhibition and n.i.; KD drDXPS (drDXPS [4]; SPR, steady-state fit): n.b.
Oc1ccc(-c2nnc(CCCOc3ccc(Cl)cc3Cl)o2)c(F)c1 [Compound 41, 4-(5-(3-(2,4-dichlorophenoxy)propyl)-1,3,4-oxadiazol-2-yl)-3-fluorophenol]	–	–	47%	–	inhib. (%) drDXPS (drDXPS [1]; at 60 μM): 48 ± 3%; IC50 (drDXPS [1]; estimated IC50 drDXPS, estimated assuming full inhibition at high concentrations): 99 µM
